Measurements published in a melting point compilation (Tetko et al.; mined from patent text by program, amines drawn as free bases though some values may be those of a salt).

Compound | melting point [°C]
S=C(NCc1ccccc1)Nc1nccs1 | 165 to 167
CCNC(=O)N(C)Cc1cccc2c1C(=O)N(C1CCC(=O)NC1=O)C2=O (centres undefined) | 219 to 221
CCCn1c(=O)c(-c2c(Cl)cccc2Cl)cc2cnc(N)nc21 | 196 to 197
COc1ccc(N2CCOCC2)c2sc(NC(=O)N(C)C3CCC(F)(F)CC3)nc12 | 189 to 192
CC(C)(C)[Si](C)(C)OCC1(CO[Si](C)(C)C(C)(C)C)COc2cc(I)cc3c(=O)c(C(=O)NCc4ccc(Cl)cc4)cn1c23 | 158 to 159
COC(=O)CCc1oc(-n2ccnc2S(C)(=O)=O)nc1-c1ccc(Cl)cc1 | 112 to 113
CC(=O)Oc1c(-c2ccccc2)sc2nc(C(C)(C)C)ccc12 | 128 to 129
CCOc1ccc(OCCCc2cn(-c3ccc(C(F)(F)F)cn3)nc2OCC)c(CCC(=O)O)c1 | 104 to 105
O=S(=O)(c1ccc2nccnc2c1)c1cccc2cnccc12 | 187 to 189
O=C(O)CCOc1cccc2c1Cc1sc(S(=O)(=O)CCC(c3ccccc3)c3ccccc3)nc1-2 | 215 to 218
Oc1cc(-c2c(F)c(F)c(F)c(F)c2F)nn1-c1ccccc1 | 149 to 151
C=CCC1Oc2c(C)c(C)c(O)c(C)c2S1 (centres undefined) | 78.5 to 79.5
Cc1nc(-n2ccc(OCc3ccc(C(F)(F)F)o3)cc2=O)sc1C(=O)NCc1cccnc1 | 240 to 242
O=C(O)CCC(O)c1ccc(-c2ccc(F)cc2F)cc1 (centres undefined) | 111 to 112
Clc1ccc2c(c1)CNC2 | 49 to 50
CC(C)N1Cc2c(F)cccc2N(CCN2CC=C(c3c[nH]c4cc(F)ccc34)CC2)S1(=O)=O | 107 to 109
O=c1[nH]sc2cc(Cl)ccc12 | 271 to 272
O=P(O)(O)C(O)(Cn1ccnc1)P(=O)(O)O | 235 to 241
O=C1N=C2CCCCN2C12CCNCC2 | 220
Cn1c2ccc(Cl)cc2c2c(CC(=O)O)nn(-c3ccccc3)c(=O)c21 | 206 to 208
CCN(CCc1c[nH]c2ccccc12)C(=O)CCCC(=O)OC | 73 to 75
O=C(O)C1c2cc(F)ccc2-c2ccc(F)cc21 | 161 to 163
CCOCC1COc2ccc(N)cc2O1 (centres undefined) | 103 to 106
CCc1cn(C)c(C2Cc3ccccc3N2C(C)=O)n1 (centres undefined) | 105 to 106
Cc1cc(OS(=O)(=O)C(F)(F)F)c2cccc(OCc3ccccc3)c2n1 | 158
CCCc1c(SC(=O)N(C)C)ccc2c(=O)cc(C(=O)OCC)oc12 | 113 to 114
COCCNCC(O)c1ccccc1 (centres undefined) | 77 to 80

Compound | melting point [°C]
COCCOc1cc2ncnc(NC3=CC(=O)C(Oc4ccc(-n5ccnc5)cc4)=CC3=O)c2cc1OC | 124 to 132
COc1ccc(-c2cc(Cl)cc3c2OC(C(F)(F)F)C(C(=O)O)=C3)cc1 (centres undefined) | 194 to 196
COCCOCCOc1ccc2sc(C(=O)Nc3ccccc3N)cc2c1 | 167 to 168
CN1CCC(C2(O)c3ccccc3Oc3ccc(C(F)(F)F)cc32)CC1 (centres undefined) | 179 to 183
CCC(=O)Nc1cccc(-c2ccc3nnc(C)n3n2)c1 | 265 to 268
Cc1cccc(NC(=O)NC2C(=O)N(CC34CC5CC(CC(C5)C3)C4)c3ccccc3N(c3ccccc3)C2=O)c1 (centres undefined) | 244 to 246
Nc1nc2ccccc2c2c1nc(CF)n2Cc1cc(-c2ccc(F)cc2)no1 | 192 to 193
CN1CCN(c2cc(Cl)cc3c2c(=O)n(Cc2ccncc2)c(=O)n3Cc2ccccc2)CC1 | 94 to 100
CCCCC[C@H]1CC[C@H](C=CCCc2ccc(O)cc2)CC1 | 89 to 90
COC(=O)Cc1ccc(OCc2ccc(OCc3nc(-c4ccccc4)oc3C)cc2)cc1 | 93 to 94
Cc1c(CC(=O)O)c2cc(OCc3ccccn3)ccc2n1Cc1ccc(Cl)cc1 | 231 to 233
COc1ccc(NC(=O)N(Cc2ccccn2)Cc2ccc(F)cc2F)c(NC(=O)c2cc(C(C)(C)C)c(O)c(C(C)(C)C)c2)c1 | 176 to 178
CN(C)S(=O)(=O)c1ccc2c(c1)CCC2=O | 142
COc1cc2c(c(C(C)C)c1OC)C(=O)N(CCl)S2(=O)=O | 117 to 119
OCc1cnc2cc(C(F)(F)F)ccc2c1O | 302 to 304
CN(C(=O)COc1nnc(C(F)F)s1)c1ccccc1 | 67
Cc1c(NC(=O)c2ccc(-c3ccc(F)cc3)c(F)c2)ccc2cc(CN3CCCCC3)cnc12 | 161 to 162
O=C(Nc1nccs1)c1cccc(-c2ccc3c(c2)C(Nc2ccc(Cl)cc2Cl)CO3)c1 (centres undefined) | 221 to 222
Nc1cc(C=C2OC(=O)c3ccccc32)ccc1F | 189 to 191
O=C1CC2CSc3sccc3C2=NN1c1ccc(Cl)cc1 (centres undefined) | 134 to 135
COc1ccc(C(=O)Nc2ccc3ccc(OC4CCN(C)CC4)nc3n2)cc1 | 200
O=C1C=C(NCc2ccccc2I)CCN1 | 163 to 164
O=[N+]([O-])c1ccc(OCc2ccccc2)cc1Cl | 82 to 84.5
CCCCCCCCCCCCCCCCCc1nnc2n1-c1sc(CC)cc1C(c1ccc(C)cc1)=NC2 | 78 to 80
O=C(O)[C@H]1Cc2ccccc2CN1S(=O)(=O)c1ccc(-c2ccccc2)cc1 | 195 to 202
CCc1cc(C2=CCN(CCCC(O)c3ccc(F)cc3)CC2)[nH]n1 (centres undefined) | 140 to 142
CC(=O)NCCn1c(C)ccc1C | 106 to 107

Now from value to compound:

melting point [°C] | Compound
67 | CCOC(=O)C=C(C)Nc1cc(C)ccc1C
150 to 151 | Cc1ccc(OCCCN2CCC(Cc3ccc4ccccc4n3)CC2)c2c1NC(=O)C2(C)C
153 to 155 | CCCCCCCNC(=O)Nc1ccc(N2CCOCC2)cc1C(=O)NCC1CCN(C(c2ccccc2)c2ccccc2)CC1
> 300 | COC(=O)Nc1cccc2c1C(=O)c1c-2n[nH]c1-c1ccc(OC)cc1
151 to 152 | CC(C)c1cccc2c1O[C@@H](C(C)C)C(=O)N2
99 to 100 | CCOC(=O)c1cnc(SC)nc1NCc1ccc(OC)c([N+](=O)[O-])c1
113 to 114 | O=C(CC1c2ccccc2S(=O)(=O)C1c1ccccc1)NO (centres undefined)
188 to 190 | O=C1CCC(N2Cc3c(OCc4ccccc4CN4CCOCC4)cccc3C2=O)C(=O)N1 (centres undefined)
205 to 206 | O=C1N(C/C=C/c2ccccc2[N+](=O)[O-])CCN1c1ccncc1
215 to 218 | CC1c2ccccc2Cn2cc3c(c21)C(=O)c1ccccc1C3=O (centres undefined)
92 to 93 | Cc1c(CCl)sc2cc(Br)ccc12
230 | CCOC(=O)C1=CC(C2CC2)c2nc3cc(F)c(F)cc3nc2C1=O (centres undefined)
99 to 102 | COc1ccc2[nH]c(S(=O)Cc3cc(N(C)C)c(F)cn3)nc2c1 (centres undefined)
233 to 235 | CN=C1CCCc2scnc21
154 to 156 | CCOC(=NC(=O)Nc1ccc(Cl)cc1)N1Cc2ccccc2-c2ccccc2C1
115 to 117 | O=S(=O)(Nc1cccc(OCc2cccc(-c3ccccc3)n2)c1)C(F)(F)F
64 to 65.5 | CCOC(=O)C(CCC#N)(C(=O)OCC)c1ncc([N+](=O)[O-])cc1C
310 | O=C1NC(=O)c2c3ccccc3cc3cccc1c23
205 to 207 | COC(=O)c1cc2ccc(C(=O)NC(CO)CO)cc2[nH]1
105 to 108 | CC(=O)N(Cc1cccs1)C1(c2ccc(Cl)cc2)CCC1
118 to 120 | Cn1nc(C#Cc2ccccc2)ccc1=O
167 to 170 | CN1CC(CCCl)Oc2c(ccc3ccccc23)C1=S (centres undefined)
205 | CCCCc1cc(OCCc2ccc(C(=O)O)cc2)c2ccccc2n1

melting point [°C] | Compound
111 to 113 | NC12CCCC(C1)C1CCC2C1 (centres undefined)
145 to 147 | Nc1ccc2c(c1)CC(NS(=O)(=O)c1ccc(Cl)cc1)C2 (centres undefined)
83 to 86 | Cc1cc2c(cc1C(F)(F)F)N(Cc1cccc(C(=O)O)c1)CCC[C@@H]2N(Cc1cc(C(F)(F)F)cc(C(F)(F)F)c1)c1nnn(C)n1
247 to 250 | Cn1ncc(C(=O)N2CC(F)C2)c1C(=O)Nc1ccn2nc(N3CCOCC3)nc2c1
115 to 117 | CN1CCN(c2cccc3ccc(NCc4ccccc4)cc23)CC1
83 to 85 | Nc1ncnc2c1c(-c1ccc(Oc3cccc(CN4CCOCC4)c3)cc1)cn2C1CCOC1 (centres undefined)
184 to 185 | CCCCc1ncc(/C=C(\Cc2cccs2)C(=O)O)n1Cc1cccc(Cl)c1Cl
126 to 128 | Cc1ccccc1C(=O)NC(NC(=NC#N)Nc1cccnc1)C(Cl)(Cl)Cl (centres undefined)
260 to 262 | Cc1c(N2CC(O)C2)c(F)cc2c(=O)c(C(=O)O)cn(C3CC3)c12
136 to 138 | CC(C)(C)OC(=O)C(=[N+]=[N-])C(=O)C(C(=O)OC(C)(C)C)[C@H]1NC(=O)[C@@H]1Br (some centres undefined)
188 to 190 | CSc1nc(-c2ccc(C#N)cc2)cn1-c1ccc(Br)cc1
166 to 167 | CCN(CC)CCC(=O)Nc1cccc2c1C(=O)c1c(NC(=O)CCN(CC)CC)cccc1C2=O
157 to 161 | CC(C)(C)NC(=O)c1ccccc1C(C(=O)C(C)(C)C)c1ccccc1 (centres undefined)
43 to 44 | CC(C)(C)OC(=O)Nc1cc(N2CCOCC2)c(I)cc1[N+](=O)[O-]
132 to 134 | CC(=NOCCO)c1ccc(-c2ccc3c(c2)OCO3)cc1
297 to 299 | O=C1CC(NC(=O)c2ccc3nc[nH]c3c2)CCCN1 (centres undefined)
169 to 170 | O=C1CC2CSc3sc(Br)cc3C2=NN1c1ccc(Cl)cc1 (centres undefined)
94 to 95 | COCCNC(=O)c1cccc(-c2cccc3cc(Cc4ccc(F)cc4F)sc23)c1
170 to 171 | CCCCc1ncc(/C=C(\Cc2cc(OC)cs2)C(=O)O)n1Cc1ccccc1Cl
125 to 126 | CCCCc1nn(-c2ccc(C(F)(F)F)cn2)cc1CCCOc1nn(C)cc1CC(=O)O
192 to 193 | CC(C)(c1ccc(Oc2cccc(N3C(=O)C=CC3=O)c2)cc1)c1ccc(C(C)(C)c2ccc(Oc3cccc(N4C(=O)C=CC4=O)c3)cc2)cc1
184 to 185 | N#Cc1ccc(C2(COc3cccc4cc(NS(=O)(=O)C(F)(F)F)ccc34)N=CNO2)cc1 (centres undefined)
